From DBAASP come the findings set out here.

Each structure is given as a SMILES string. Values after ≈ are worked out from the molar mass of the structure shown. Values joined by “and” are separate entries in the source; they are usually repeats but may differ in a detail not shown here. Equal values may be shown once.

Test systems include Staphylococcus aureus; Escherichia coli; Shigella dysenteriae; Streptococcus agalactiae; Cryptococcus neoformans; Candida albicans; Escherichia coli ML-35; Bacillus megaterium Bm11; Serratia marcescens; Escherichia coli D21; Enterococcus faecium.
Holding throughout (test): ≥ marks a high value that may be exact or a test limit, other limits are often not marked, values filed in µg/mL are converted to µM
Assay [1] concerns Shigella dysenteriae ATCC 2932.
The subject of assay [2] is Candida albicans ATCC 3007.
The subject of assay [3] is Staphylococcus aureus ATCC 2576.
Assay [4] relates to Escherichia coli ATCC 25629.
Assay [5] has as its system Escherichia coli ATCC 25726.
Assay [6] has as its system Staphylococcus aureus NCTC 8325.
The subject of assay [7] is Staphylococcus aureus ATCC 25923.
Assay [8] concerns Acinetobacter baumannii I NM8.
Assay [9] deals with Candida albicans ATCC 90028.
Assay [10] concerns Escherichia coli ATCC 25922.
Assay [11] has as its system Klebsiella pneumoniae ATCC 700603.
Assay [12] deals with Staphylococcus epidermidis ATCC 12228.
Assay [13] concerns Staphylococcus aureus KCTC 1621.
Assay [14] concerns Escherichia coli O18:K1:H7 Bort.
The subject of assay [15] is Escherichia coli KCTC 1682.
The test system of assay [16] is Bacillus subtilis KCTC 3068.
The test system of assay [17] is Staphylococcus epidermidis KCTC 1917.
Assay [18] concerns Salmonella enterica subsp. enterica serovar Typhimurium ATCC 14028.
The test system of assay [19] is Staphylococcus aureus Cowan 1.
The test system of assay [20] is Serratia marcescens ATCC 8100.
For assay [21], the system named is Salmonella typhimurium KCTC 1926.
Assay [22] deals with Pseudomonas aeruginosa ATCC 27853.
The subject of assay [23] is Pseudomonas aeruginosa KCTC 1637.

Consider `CSCC[C@H](NC(=O)[C@H](CCCCN)NC(=O)[C@@H]1CCCN1C(=O)[C@H](CC(C)C)NC(=O)[C@@H](N)Cc1ccccc1)C(=O)N[C@@H](CO)C(=O)N[C@H](C(=O)N[C@@H](CCCCN)C(=O)N[C@@H](CC(C)C)C(=O)N[C@@H](CCCN=C(N)N)C(=O)N[C@H](C(=O)N1CCC[C@H]1C(=O)N[C@@H](Cc1ccc(O)cc1)C(=O)N[C@@H](CCCN=C(N)N)C(=O)N[C@@H](CCCN=C(N)N)C(=O)NCC(=O)N[C@H](C(=O)N[C@@H](CCCCN)C(=O)N[C@@H](CC(=O)O)C(=O)N[C@@H](Cc1ccc(O)cc1)C(=O)N[C@@H](Cc1cnc[nH]1)C(=O)O)[C@@H](C)O)C(C)C)[C@@H](C)O` [FLPKMSTKLRVPYRRGTKDYH], for which the MIC stood at 2.89 µM (≈ 7.5 µg/mL) in [1]; 1.93 µM (≈ 5 µg/mL) with Staphylococcus aureus; 5.78 µM (≈ 15 µg/mL) in [2]; 0.463 µM (≈ 1.2 µg/mL) in [3]; 5.78 µM (≈ 15 µg/mL) in the assay on Escherichia coli; 2.89 µM (≈ 7.5 µg/mL) in the assay on Shigella dysenteriae. Moreover, the MIC in [4] stood at 4.82 µM (≈ 12.5 µg/mL).
For `CC[C@H](C)[C@H](NC(=O)[C@@H](NC(=O)[C@H](C)NC(=O)[C@H](CCCCN)NC(=O)[C@H](C)NC(=O)[C@@H](NC(=O)[C@H](CCCCN)NC(=O)CNC(=O)[C@H](CC(C)C)NC(=O)[C@H](C)NC(=O)[C@@H](NC(=O)CNC(=O)[C@H](C)NC(=O)[C@H](CCCCN)NC(=O)[C@@H](NC(=O)[C@H](C)NC(=O)[C@H](CCSC)NC(=O)CN)[C@@H](C)O)[C@@H](C)O)C(C)C)C(C)C)C(=O)NCC(=O)N[C@@H](C)C(=O)N[C@@H](C)C(=O)N[C@@H](CC(C)C)C(N)=O` [GMATKAGTALGKVAKAVIGAAL], the MIC in [5] is at least 100 µM; in assay [6] it was at least 100 µM; in assay [7], 160 µM and 100 µM; in [8] it was 25 µM (≈ 50 µg/mL); in [9], at least 100 µM; in assay [10], over 100 µM. Besides, the MIC in assay [11] is over 50 µM.
In the case of `CC[C@H](C)[C@H](NC(=O)[C@@H](NC(=O)[C@@H]1CCCN1C(=O)[C@H](CO)NC(=O)[C@H](CC(C)C)NC(=O)[C@H](CCCCN)NC(=O)[C@H](CCCCN)NC(=O)[C@H](Cc1ccccc1)NC(=O)[C@H](CC(C)C)NC(=O)[C@H](CCCCN)NC(=O)[C@H](CCCCN)NC(=O)[C@H](Cc1ccccc1)NC(=O)[C@H](CCCCN)NC(=O)[C@H](CCCCN)NC(=O)[C@H](CCCN=C(N)N)NC(=O)[C@H](Cc1ccccc1)NC(=O)[C@H](CCCN=C(N)N)NC(=O)[C@H](CCCCN)NC(=O)[C@H](Cc1ccccc1)NC(=O)[C@H](CCCN=C(N)N)NC(=O)CN)C(C)C)C(=O)N1CCC[C@H]1C(=O)N[C@@H](CC(C)C)C(=O)N[C@@H](CC(C)C)C(=O)N[C@@H](Cc1cnc[nH]1)C(=O)N[C@@H](CC(C)C)C(=O)NCC(N)=O` [GRFKRFRKKFKKLFKKLSPVIPLLHLG], the MIC came to 1 µM (≈ 3.28 µg/mL) in [12]; 4 µM (≈ 13.1 µg/mL) in assay [13]; 2.83 µM (≈ 9.28 µg/mL) in the assay with Streptococcus agalactiae; 0.5 µM (≈ 1.64 µg/mL) in assay [14]; 2 µM (≈ 6.56 µg/mL) in [7]; 4 µM (≈ 13.1 µg/mL) in assay [15]. Besides, the minimum inhibitory concentration (MIC) worked out at 2 µM (≈ 6.56 µg/mL) in assay [16]; 2 µM (≈ 6.56 µg/mL) in [17]; 4 µM (≈ 13.1 µg/mL) against Cryptococcus neoformans; 8 µM (≈ 26.3 µg/mL) in the assay on Candida albicans; 4 µM (≈ 13.1 µg/mL) against Staphylococcus aureus; 1 µM (≈ 3.28 µg/mL) in assay [18]. Besides, the MIC against Escherichia coli ML-35 came out at 1 µM (≈ 3.28 µg/mL); in the assay on Bacillus megaterium Bm11, 2 µM (≈ 6.56 µg/mL); in assay [19], 2 µM (≈ 6.56 µg/mL); in [20], 2 µM (≈ 6.56 µg/mL); in assay [21] it was 1 µM (≈ 3.28 µg/mL); with Serratia marcescens, 2.83 µM (≈ 9.28 µg/mL). The MIC amounted to 0.25 µM (≈ 0.821 µg/mL) with Escherichia coli D21; 1 µM (≈ 3.28 µg/mL) in [22]; 5.66 µM (≈ 18.6 µg/mL) against Enterococcus faecium; 1 µM (≈ 3.28 µg/mL) in assay [10]; 2 µM (≈ 6.56 µg/mL) in [23].

Usually MIC stands for the smallest concentration in the dilution series that meets the test's criterion for growth inhibition. Low readings indicate a more susceptible organism, high ones a less susceptible organism.
